Reference: PMC11641365, “Evaluation of In Vitro Biological Activity of Flavanone/Chromanone Derivatives: Molecular Analysis of Anticancer Mechanisms in Colorectal Cancer” (International Journal of Molecular Sciences, 2024)

What was measured:
Format in all cases: cell-based, human
HT-29 = test: Reactive nitrogen species level, DAF-FM probe; details: compound at IC50, 24 h
Description: (§1) Diaminofluorescein-FM diacetate (DAF-FM diacetate, Invitrogen, Carlsbad, CA, USA), a cell-permeable fluorescent probe, is widely utilized for the detection and quantification of reactive nitrogen species (RNS), primarily nitric oxide (NO). […] Upon interaction with NO, however, it undergoes a chemical transformation resulting in the formation of a highly fluorescent benzotriazole derivative with excitation and emission maxima at 495 and 515 nm, respectively.
(§2) Cells were seeded in black 96-well fluorometric microplates at a density of 10 × 10^3 cells/mL. […] Following compound incubation, the medium was removed, and the cell monolayers were washed twice with HBSS (140 mM NaCl, 5 mM KCl, 0.8 mM MgCl2, 1.8 mM CaCl2, 1 mM Na2HPO4, 10 mM HEPES, and 1% glucose). […] Fluorescence measurements were conducted using a Perkin-Elmer LS-5B spectrofluorometer (MA, USA) at the following excitation and fluorescence emission wavelengths: λex = 495 nm/λem = 515 nm. The fluorescence intensity of control cells was arbitrarily assigned a value of 100%. The results were expressed as percentages of control, calculated by comparing the fluorescence intensity ratio of the test samples to controls (100%). The fluorescence of samples was denoted as Δf in relation to the control.

SW620 [1] = test: Reactive nitrogen species level, DAF-FM probe; details: compound at IC50, 24 h
Description: as §1, §2

Caco-2 = test: Cell cycle analysis via flow cytometry (propidium iodide); details: compound at IC50, 24 h, vs control
Description: The most commonly used fluorescent dyes for cell cycle analysis are fluorochromes that penetrate the cell membrane into the interior of permeabilized cells and bind stoichiometrically to DNA via intercalation, e.g., DAPI, propidium iodide (PI). The analysis is performed on cells fixed in ethanol. In this work, the cell cycle analysis was performed using the method described by Darzynkiewicz and Juan.
Cells (10 × 10^3) were seeded in 35 mm dishes and cultured in the medium for 24 h to attain the logarithmic growth phase. […] Subsequently, cells were trypsinized and centrifuged for 10 min at 400× g at 4 °C. The cell suspension in 100 μL of PBS was fixed in 1 mL of 70% ethanol (−20 °C) and stored at this temperature until analysis. Immediately before analysis, the ethanol-fixed cell suspension was centrifuged at 10,000 rpm for 10 min at 4 °C. The pellet was washed with cold (4 °C) PBS to remove residual ethanol, and the cell suspension was centrifuged again under the same conditions. A volume of 300 μL of PBS containing 4 mg/mL propidium iodide (final concentration 75 μM) and 1 mg/mL RNAse A (final concentration 20 μg/mL) was added to the cell pellet and incubated for at least 30 min at 37 °C in the dark. Stained cells were analyzed using a flow cytometer (Becton Dickinson, Franklin Lakes, NJ, USA), counting 10,000 cells in each sample. Data were analyzed using FlowJo 10.10 software (FlowJo, Williamson Way Ashland, OR, USA).

SW620 [2] = test: Alkaline comet assay (DNA damage); details: compound at IC50, 12 h, vs control group
Excerpt: Single-cell gel electrophoresis, also known as the comet assay, is a rapid and sensitive method for assessing DNA damage at the single-cell level. Cells are lysed and electrophoresed. Both single-strand and double-strand breaks are detected under alkaline conditions. The released DNA is denatured and moves in the agarose gel toward the anode during electrophoresis. The image, obtained after staining with the fluorescent dye 4′,6-diamidino-2-phenylindole (DAPI), resembles a “comet” with a distinct “head” (intact DNA) and “tail” (damaged DNA fragments). The length of the tail depends on the number and size of the broken DNA strands.
Cells (1 × 10^3) were seeded in 35 mm dishes and cultured in the medium for 24 h to attain the logarithmic growth phase. […] Quantitative analysis of the DNA comet image of preparations stained with DAPI solution (2 μg/L) was performed using a camera connected to a fluorescence microscope. The comet DNA analysis was performed under a Nikon Eclipse fluorescence microscope (Nikon, Tokyo, Japan) equipped with a 4910 COHU video camera (Cohu, Inc., San Diego, CA, USA) and a computer with Lucia-Comet v. […] Each time, from each preparation, 100 randomly selected comets were counted. The extent of DNA damage is quantified by measuring the length of the comet tail and the amount of DNA it contains. […]

**Q.** For `O=C1/C(=C/c2ccccc2)COc2ccccc21` [Compound 1], which “Change in RNS levels” value (HT-29) is on record?
**A.** significantly increased RNS levels

**Q.** And the “Change in RNS levels” value (SW620 [1])?
**A.** significantly increased RNS levels

**Q.** And the “Increase in the G2/M phase cell percentage” value (Caco-2)?
**A.** 30%

**Q.** For `COc1cccc(/C=C2/C(=O)c3ccccc3OC2c2ccccc2)c1` (stereo not shown) [Compound 3], which “Increase in DNA content in the comet tail” value (SW620 [2]) is on record?
**A.** approximately 40%
